Laboratory results published in US20240366649A1, “4-ETHYNYL-3-HYDROXY-TETRAHYDROFURANYL-ADENINE PHOSPHORAMIDATES AND RELATED COMPOUNDS AND THEIR USE IN TREATING MEDICAL CONDITIONS” (ROME THERAPEUTICS, INC., priority 2021, published 2024).
Each block holds one compound with its values, some of them ahead of it.

How the values were obtained:
[1] = system: IFN-β production in PBMCs; experiment: Decitabine-stimulated human PBMC assay; type: cell-based; conditions: anti-CD3/anti-CD28, 10 μM decitabine, 5 days
Description: EasySep buffer (32 mL, Stem Cell, cat. #20144) was used to dilute 8 mL of LRSC buffy coat (from fresh Leukopak) with gentle mixing. The diluted buffy coat (20 mL) was transferred into each of two SepMate 50 tubes, and the tubes were filled with 15 mL of Lyphoprep (Stem Cell, ct. #07851) density gradient. The SepMate tubes were then centrifuged at 1200G for 10 minutes at room temperature with the brake on. The top layer of supernatant was collected in SepMate tubes by quickly pouring it into a new 50 mL conical tube. The PBMCs were washed with EasySep buffer ×2 by centrifuging at 300G for 5 minutes. The cells were resuspended in 30 mL of EasySep and centrifuged at 100G for 5 minutes with the brake off, and the platelets were removed. The cells were then resuspended in 6 mL of 1×RBC lysis buffer (InvitroGen) and incubated at 37° C. for 5 minutes. Then, 25 mL of EasySep buffer was mixed into the tube and it was centrifuged at 300G for 5 minutes. The cells were resuspended in 10 mL of EasySep buffer and the cells were then counted with Cellometer (AO/PI). The PBMCs were resuspended in RPMI1640 (ThermoFisher)+10% FBS (HyClone)+p/s at 3×10^6/mL. The PBMCs (100 μL, 300 k PBMCs) were then seeded in a 96-well flat bottom microplate (Corning) that had been precoated with 100 μL of anti-CD3 antibody (10 μg/mL in PBS, Biolegend) or PBS at 4° C., one day before the assay was commenced. […]

[2] = system: Ovarian cancer OVCAR-8 cells; experiment: Cancer cell viability assay with 3D cell colonies (CellTiter-Glo), OVCAR-8; type: cell-based; conditions: OVCAR-8, 3D methylcellulose colonies, 7 days
Description: (§1) Cancer cell lines were cultured in the following media: • Ovarian cancer OVCAR-8 cells—RPMI media containing 10% FBS • Ovarian cancer SK-OV-3 cells—McCoy's 5a media containing 10% FBS • Ovarian cancer SW756 cells—L-15 (100% air)+10% FBS • Esophageal cancer TE-1 cells—RPMI-1640+10% FBS • Esophageal cancer KYSE-410 cells—RPMI-1640+5˜10% FBS • Esophageal cancer KYSE-70 cells—RPMI-1640+10% h.i.FBS. • Pharyngeal cancer FaDu cells—MEM+0.01 mM NEAA+10% FBS
(§2) Cell colony formation was tested using a 3D methylcellulose-based CellTiter-Glo (CTG) viability assay (Cat. No: G7573, Promega). Briefly, cells were inoculated into 96-well plates (at 1,500 cells per well) into a solution of 0.65% methylcellulose in growth media and incubated overnight at 37° C. in 5% CO2. The next day, serially diluted test compound (islatravir, 4′-ethynyl-2-fluoro-2′-deoxyadenosine) or positive control (cisplatin, Cat. No. 6J015A89, Qilu Pharma) were added at the indicated concentrations, and the cells were incubated for 7 days. On day seven, 100 μL of CTG reagent was added, and the plates were incubated at room temperature for 20 min. Luminescence was read on an Envision Multi Label Reader according to manufacturer's instructions. IC50 values were determined using the following calculation: […]

[3] = system: Ovarian cancer SK-OV-3 cells; experiment: Cancer cell viability assay with 3D cell colonies (CellTiter-Glo), SK-OV-3; type: cell-based; conditions: SK-OV-3, 3D methylcellulose colonies, 7 days
Description: as §1, §2

[4] = system: Ovarian cancer SW756 cells; experiment: Cancer cell viability assay with 3D cell colonies (CellTiter-Glo), SW756; type: cell-based; conditions: SW756, 3D methylcellulose colonies, 7 days
Description: as §1, §2

[5] = system: Esophageal cancer TE-1 cells; experiment: Cancer cell viability assay with 3D cell colonies (CellTiter-Glo), TE-1; type: cell-based; conditions: TE-1, 3D methylcellulose colonies, 7 days
Description: as §1, §2

[6] = system: Esophageal cancer KYSE-410 cells; experiment: Cancer cell viability assay with 3D cell colonies (CellTiter-Glo), KYSE-410; type: cell-based; conditions: KYSE-410, 3D methylcellulose colonies, 7 days
Description: as §1, §2

[7] = system: Esophageal cancer KYSE-70 cells; experiment: Cancer cell viability assay with 3D cell colonies (CellTiter-Glo), KYSE-70; type: cell-based; conditions: KYSE-70, 3D methylcellulose colonies, 7 days
Description: as §1, §2

[8] = system: Pharyngeal cancer FaDu cells; experiment: Cancer cell viability assay with 3D cell colonies (CellTiter-Glo), FaDu; type: cell-based; conditions: 3D methylcellulose colonies, 7 days
Description: as §1, §2

[9] = biological target: LINE1 reverse transcriptase (Homo sapiens, UniProt O00370); experiment: Homogeneous time-resolved fluorescence (HTRF) LINE1 RT assay; type: biochemical; set-up: recombinant MBP-tagged LINE1 protein (238-1061); MBP; made in house; conditions: recombinant MBP-tagged LINE1 protein (238-1061), read-out: IC50 for inhibiting LINE1 reverse transcriptase
Description: The LINE1 reverse transcriptase homogeneous time-resolved fluorescence (HTRF) assay was performed with recombinant MBP-tagged LINE1 protein (238-1061) (generated and purified according to procedures in Dai L. et al. BMC Biochemistry 2011; 12:18) in a 384-well format. Test compound was serially diluted in DMSO and further diluted in the assay buffer (50 mM Tris-HCl, 50 mM KCl, 10 mM MgCl2, 10 mM DTT, pH 8.1) to achieve a final DMSO concentration of 1%. The serially diluted compound was mixed with 64 ng/well of LINE1 enzyme, 5 nM of pre-annealed template/biotin-primer pair (synthesized at Generay Biotechnology), 10 nM of Fluorescein-12-dATP fluorescent probe (Perkin Elmer), and 1 μM dGTP/dCTP/dTTP (Thermo Fisher Scientific) in the assay buffer. The template/biotin-primer sequences were as follows:
(§3) After incubating at 25° C. for 60 minutes, the detection reagent (20 mM EDTA with streptavidin-terbium cryptate, Cisbio Bioassay) in the PPI buffer (Cisbio Bioassay) was added, and the mixture was incubated at 25° C. for 30 minutes. At the end of the incubation, fluorescence was read at ex/em=337/485 nm and ex/em=337/520 nm on an Envision 2104 plate reader (Perkin Elmer). The fluorescence ratio at 520/485 nm was used for the calculation. […] The IC50 was calculated by fitting the compound dose inhibition curve with a 4-parameter non-linear regression equation.

[10] = biological target: T1, HERV-K reverse transcriptase (Homo sapiens, UniProt V9H0F6); experiment: Homogeneous time-resolved fluorescence (HTRF) HERV-K RT assay; type: biochemical; conditions: HERV-K reverse transcriptase (2-596)-8His protein, read-out: IC50 for inhibiting HERV-K reverse transcriptase
T1 construct: fused on or other part: C-terminal 8His tag
Description: The HERV-K reverse transcriptase homogeneous time-resolved fluorescence (HTRF) assay was performed in a 384-well format with HERV-K reverse transcriptase (2-596)-8His protein. Baculoviruses were created using Bac-to-Bac technology (Invitrogen). pFastBac donor plasmids containing HERV-K reverse transcriptase sequence (NCBI GenBank number AAC63291.1, J. Virology (1999) Vol. 73, No. 3, pp. 2365-2375) were transformed into DH10 Bac cells following the manufacturer's instructions. Recombinant bacmids were then isolated clonally and transfected into SF9 cells with lipofectin. HERV-K reverse transcriptase was expressed in the SF9 insect cells and then purified using immobilized metal affinity chromatography (IMAC) followed by size-exclusion chromatography (SEC). […]
as §3, with “30” for “60”, “20” for “(20”, “cryptate (Cisbio” for “cryptate, Cisbio”, “60” for “30”

T1 sequence (V9H0F6 entry or part of it): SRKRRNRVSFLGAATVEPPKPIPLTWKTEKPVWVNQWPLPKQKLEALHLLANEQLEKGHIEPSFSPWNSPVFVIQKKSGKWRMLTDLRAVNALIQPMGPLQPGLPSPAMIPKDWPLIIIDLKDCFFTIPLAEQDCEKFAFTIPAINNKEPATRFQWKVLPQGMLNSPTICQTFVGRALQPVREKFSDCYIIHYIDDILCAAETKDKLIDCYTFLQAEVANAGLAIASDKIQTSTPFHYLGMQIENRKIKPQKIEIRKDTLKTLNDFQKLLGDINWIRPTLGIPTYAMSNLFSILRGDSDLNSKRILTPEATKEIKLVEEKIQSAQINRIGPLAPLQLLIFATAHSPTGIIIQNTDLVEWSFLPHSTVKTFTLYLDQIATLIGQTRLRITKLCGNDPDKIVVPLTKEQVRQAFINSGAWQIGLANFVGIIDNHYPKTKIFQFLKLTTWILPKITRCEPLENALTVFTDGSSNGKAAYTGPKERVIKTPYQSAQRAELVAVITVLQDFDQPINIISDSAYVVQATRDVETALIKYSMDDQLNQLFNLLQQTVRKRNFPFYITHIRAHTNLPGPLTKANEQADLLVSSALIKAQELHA

SMILES: C#C[C@]1(CO)O[C@@H](n2cnc3c(N)nc(Cl)nc32)C[C@@H]1O [4′-ethynyl-2-chloro-2′-deoxyadenosine]
- production of IFN-β [1]: activated production of IFN-β

SMILES: N.N.[Cl][Pt][Cl] [Cisplatin, cisplatin]
- IC50 [2]: ≤ 10000 nM
- IC50 [3]: ≤ 10000 nM
- IC50 [4]: ≤ 10000 nM
- IC50 [5]: ≤ 10000 nM
- IC50 [6]: > 30000 nM
- IC50 [7]: ≤ 10000 nM
- IC50 [8]: ≤ 10000 nM

- IC50 [9]: 23 nM
SMILES: C#C[C@]1(COP(=O)(O)OP(=O)(O)OP(=O)(O)O)O[C@@H](n2cnc3c(N)nc(F)nc32)C[C@@H]1O [drawing 277]

- IC50 [9]: 20 nM
SMILES: C#C[C@]1(COP(=O)(O)OP(=O)(O)OP(=O)(O)O)O[C@@H](n2cnc3c(N)nc(Cl)nc32)C[C@@H]1O [drawing 278]

- IC50 [10]: 17.8 nM
SMILES: C#C[C@]1(COP(=O)(O)OP(=O)(O)OP(=O)(O)O)O[C@@H](n2cnc3c(N)nc(F)nc32)C[C@@H]1O [drawing 279]

- IC50 [10]: 310 nM
SMILES: C#C[C@]1(COP(=O)(O)OP(=O)(O)OP(=O)(O)O)O[C@@H](n2cnc3c(N)nc(Cl)nc32)C[C@@H]1O [drawing 280]
